Literature values, collected in US9987239B1, “Pharmaceutical retinoid preparation for topical use” (Rey Ventures, LLC, priority 2017, dated 2018).

## COc1ccc(-c2ccc3cc(C(=O)O)ccc3c2)cc1C12CC3CC(CC(C3)C1)C2 [adapalene, 6-[3-(1-adamantyl)-4-methoxyphenyl] naphthalene-2-carboxylic]
Ethyl alcohol
  solubility of adapalene in ethyl alcohol: 1000 µg/mL
water
  solubility of adapalene (water): 0.004 µg/mL
